From the Deep4Chem optical property database
Several values for one entry are separate records, joined by “and”; a condition that tells them apart may be missing. Equal values may be shown once.

Assay: solvent given as SMILES

CC(C)(C)NC(=O)c1ccc2ccc3cccc4ccc1c2c34
absorption maximum (in ClC(Cl)Cl): 377 nm

CNC(=O)[C@H](C)NC(=O)c1cccc2c1C#Cc1c(NC(=O)[C@@H](NC(C)=O)C(C)C)cccc1OCCCO2
absorption maximum (in CC#N): 324 nm | absorption maximum (in ClCCl): 336 nm

COc1ccc(C2=C3C=c4c(oc5ccccc45)=[N+]3[B-](F)(F)n3c2cc2c4ccccc4oc23)cc1
absorption maximum (in C1CCCCC1): 583.5 nm | absorption maximum (in CCOC(C)=O): 578 nm | absorption maximum (in CO): 576.5 nm

COc1ccc(-c2nc(-c3ccccc3)c(N(c3ccccc3)c3ccccc3)s2)cc1
absorption maximum (in ClC(Cl)Cl): 357 nm

C(=C1c2ccccc2-c2ccccc21)c1ccc(-c2ccc(C=C3c4ccccc4-c4ccccc43)cc2)cc1
absorption maximum (in C1CCOC1): 366 nm

Cc1cc2cc3ccccc3cc2cn1
absorption maximum (in CCO): 379.08 nm

N#Cc1ccc(C2=Cc3ccccc3P2(=O)c2ccccc2)cc1 (configuration not stated)
absorption maximum (in ClCCl): 350 nm

c1ccc(-c2nc(-c3ccccc3)nc(-c3ccc(-n4c5ccc(-n6c7ccccc7c7ccccc76)cc5c5cc(-n6c7ccccc7c7ccccc76)ccc54)cc3)n2)cc1
absorption maximum (in Cc1ccccc1): 368 nm

COc1cc2c(cc1C=C(C#N)C#N)c1ccccc1n2C
absorption maximum (in C1CCOC1): 423 nm | absorption maximum (in CC#N): 422 nm | absorption maximum (in CCOC(C)=O): 420 nm | absorption maximum (in CN(C)C=O): 428 nm | absorption maximum (in CO): 425 nm | absorption maximum (in CS(C)=O): 427 nm | absorption maximum (in Cc1ccccc1): 425 nm | absorption maximum (in ClC(Cl)Cl): 430 nm | absorption maximum (in ClCCl): 427 nm

CCOC(=O)CN1C(=O)C2=C(c3ccccc3)N(CC(=O)OCC)C(=O)C2=C1c1ccccc1
absorption maximum (in CC#N): 454 nm | absorption maximum (in CS(C)=O): 460 nm | absorption maximum (in Cc1ccccc1): 462 nm

Cc1c2c(c(C)c3ccccc13)-c1cc3nc4ccccc4nc3cc1-2
absorption maximum (in ClC(Cl)Cl): 448 nm

CN(C)/C=N\c1ccc2c3c(cccc13)C(=O)c1ccccc1-2
absorption maximum (in C1CCOC1): 459 nm | absorption maximum (in CCCCCC): 437 nm | absorption maximum (in CCO): 471 nm | absorption maximum (in CCOC(C)=O): 459 nm | absorption maximum (in CN(C)C=O): 479 nm | absorption maximum (in CO): 470 nm | absorption maximum (in Cc1ccccc1): 454 nm | absorption maximum (in ClC(Cl)(Cl)Cl): 448 nm | absorption maximum (in ClC(Cl)Cl): 464 nm | absorption maximum (in ClCCl): 467 nm | absorption maximum (in c1ccccc1): 456 nm

N#Cc1cc2nc3c(nc2cc1C#N)C1c2ccc(N(c4ccccc4)c4ccccc4)cc2C3c2ccc(N(c3ccccc3)c3ccccc3)cc21
absorption maximum (in C1CCCCC1): 428 nm | absorption maximum (in CC#N): 410 nm | absorption maximum (in Cc1ccccc1): 420 nm | absorption maximum (in ClCCl): 428 nm

COc1ccc(/C=C/c2ncc(-c3ccccc3)o2)cc1OC
absorption maximum (in ClCCl): 355 nm

Cc1cccc(C)c1-c1cc2c(C)c3c4cc5nc6ccc7c8c(C)c9cc(-c%10c(C)cccc%10C)c(-c%10c(C)cccc%10C)cc9c(C)c8c7c6nc5cc4c3c(C)c2cc1-c1c(C)cccc1C
absorption maximum (in ClC(Cl)Cl): 487 nm

CCCCCCCCCCCCOc1cc2c(cc1OCCCCCCCCCCCC)C1=C3C(=O)N4C=Cc5cc(OCCCCCCCCCCCC)c(OCCCCCCCCCCCC)cc5C4=C3C(=O)N1C=C2
absorption maximum (in CN(C)C=O): 592 nm | absorption maximum (in ClC(Cl)Cl): 590 nm

COc1ccc([C@@H]2C[C@](O)(c3ccccn3)C[C@](O)(c3ccccn3)[C@H]2C(=O)c2ccc(N(c3ccccc3)c3ccccc3)cc2)cc1
absorption maximum (in C1CCOC1): 366 nm | absorption maximum (in CC#N): 366 nm | absorption maximum (in CCO): 366 nm | absorption maximum (in CCOC(C)=O): 366 nm | absorption maximum (in CN(C)C=O): 358 nm | absorption maximum (in ClCCl): 370 nm | absorption maximum (in c1ccccc1): 370 nm

CN(C)c1ccc(/C=C/C=C/c2ccncc2)cc1
absorption maximum (in C1COCCO1): 392 nm | absorption maximum (in CC#N): 392 nm | absorption maximum (in CCCCCCC): 383 nm | absorption maximum (in CO): 394 nm

c1ccc2ccccc2c1
absorption maximum (in C1CCCCC1): 291.46 nm and 286 nm

COc1ccc(-c2ccc(-c3ccc(F)cc3)cc2)cc1
absorption maximum (in C1COCCO1): 291 nm

CCCCn1c2ccccc2c2ccc3c4cc(-c5ccccc5)ccc4n(CCCC)c3c21
absorption maximum (in ClC(Cl)Cl): 330 nm
